From ChEMBL document CHEMBL1201862, “PubChem BioAssay data set” (2004)
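Where inhibition never reached the appropriate level, the endpoint shown equals the highest concentration tested. Otherwise, values were interpolated linearly from a five-concentration, 48-hour dose response in 96-well plates. At the GI50, growth is halved.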 Calls of active or inactive are those of the source. Rule as the data show it: active = GI50 up to about 1.1 µM and inactive = higher.

Key:
Assay in all cases: NCI tumour cell line growth inhibition, 48 h
RXF 631 = test system: RXF 631
DMS-273 = test system: DMS-273
DMS-114 = test system: DMS-114
M19-MEL = test system: M19-MEL
LXFL 529 = test system: LXFL 529
HOP-18 = test system: HOP-18
SNB-78 = test system: SNB-78
KM-20L2 = test system: KM-20L2
XF498 = test system: XF498

Measured: GI50

C=C[C@@]12CCCCC1C/C(=C(/O)OC)C(=O)C2 (some centres not stated)
inactive: RXF 631 > 100 µM | DMS-273 > 100 µM | DMS-114 > 100 µM | M19-MEL > 100 µM | LXFL 529 > 100 µM | HOP-18 > 100 µM | SNB-78 > 100 µM | KM-20L2 > 100 µM | XF498 > 100 µM

Cc1[nH]c2ccccc2c1C1=NO/C(=N\O)C(c2c(C)[nH]c3ccccc23)C1 (configuration not stated)
inactive: RXF 631 31 µM | DMS-273 35.9 µM | DMS-114 36.8 µM | M19-MEL 41.3 µM | LXFL 529 35.6 µM | HOP-18 32.4 µM | SNB-78 35.4 µM | KM-20L2 23.8 µM | XF498 53 µM

Cc1nc(N)sc1C(=O)/C=C/c1ccc(/C=C/C(=O)c2sc(NC(=O)CCCCCCCCC(=O)Nc3nc(C)c(C(=O)/C=C/c4ccc(/C=C/C(=O)c5sc(N)nc5C)cc4)s3)nc2C)cc1
inactive: RXF 631 > 100 µM | DMS-273 > 100 µM | DMS-114 > 100 µM | M19-MEL > 100 µM | LXFL 529 > 100 µM | HOP-18 > 100 µM | SNB-78 58.5 µM | KM-20L2 > 100 µM | XF498 > 100 µM
